# According to paper PMC11013662, “New Thiosemicarbazide Derivatives with Multidirectional Biological Action” (Molecules, 2024):
# Read-outs that look alike come from different tables or passages of the source.
# What was measured:
# [1] = test system: Micrococcus luteus ATCC 10240; assay: Broth microdilution MIC / MBC; type: cell-based; settings: ATCC10240, M. luteus ATCC 10240
# Procedure: (§1) The microdilution method was used to determine the MIC values of newly synthesized compounds. The antimicrobial activity of the thiosemicarbazides series was tested on ten reference bacterial strains purchased from the American Type Culture Collection (ATCC). Seven Gram-positive reference strains (S. aureus ATCC 29213, S. aureus ATCC 43300, S. aureus ATCC 6538, S. aureus ATCC 25923, S. epidermidis ATCC 12228, M. luteus ATCC 10240, and B. cereus ATCC 10876) and three Gram-negative reference bacteria (K. pneumoniae ATCC 13883, E. coli ATCC 25922, S. typhimurium ATCC 14028) were used. These bacterial strains are representatives of microorganisms that can cause the most common opportunistic infections among humans. The bacteria were grown on Mueller–Hinton agar (MHA) plates before examination. To perform the assay, all bacteria were placed in sterile saline (0.85% NaCl) to obtain a suspension of the optical density of the 0.5 McFarland standard (1.50 × 10^8 colony-forming units (CFUs)/mL). A solution of the tested compounds was prepared in dimethyl sulfoxide (DMSO) at a concentration of 50 mg/mL as a stock solution.
# (§2) A 96-well microtiter plate and microbroth two-fold dilution method was used to determine the minimum inhibitory concentration (MIC) according to the EUCAST (European Committee on Antimicrobial Susceptibility Testing) reference recommendation. The solutions were then diluted with Mueller–Hinton broth (MHB, Biomaxima, Lublin, Poland) medium to obtain a solution with a basic concentration of 1000 µg/mL. Then, using the two-fold dilution method with MHB, the tested compounds were introduced into the wells of the microplate to provide a final concentration in the range of 0.49 to 1000 µg/mL. Then, 2 μL of bacterial inoculum with a density of 0.5 McFarland standard was added into each well. Each well was filled with a total volume of 100 μL. Then, microtiter plates were incubated for 18 ± 2 h at 35 °C. After incubation, the growth of bacteria was monitored by a Biotek ELx800 (Biokom, Janki, Poland) spectrophotometer at 600 nm (OD600). The MIC assays were performed in triplicate.
# (§3) A negative control with MHB and without tested compounds was used. Clinically used anti-bacterial agents, cefuroxime and vancomycin, were included as positive controls for the purpose of comparison in a concentration range from 0.007 to 15.625 µg/mL.
# (§4) The in vitro antimicrobial activity of the tested compounds was determined by the MIC, which was defined as the lowest concentration of the compound tested at which no visible growth of the test bacteria was observed. The MBC (the minimum bactericidal concentration) is defined as the lowest concentration of antimicrobial agent resulting in reduction in the viability of the initial bacterial inoculum by ≥99.9% on the plate. Generally, an MBC/MIC ratio less than 4 is considered bactericidal for an antimicrobial, and an MBC/MIC > 8 is indicative of bacteriostatic activity. For the MBC test, the Mueller–Hinton agar (MHA, Biomaxima, Poland) plate assay was used. MBC was determined after the broth dilution period of an MIC test has been completed. After the MIC detection, 5 µL aliquots from each well were plated on an MHA plate and grown at 35 °C overnight. The MBC values were determined by observing the first clear area on the agar plate that has no observable bacterial growth.
# [2] = test system: Staphylococcus epidermidis ATCC 12228; assay: Broth microdilution MIC / MBC; type: cell-based; settings: ATCC12228, S. epidermidis ATCC 12228
# Procedure: as §1, §2, §3, §4
# [3] = test system: Staphylococcus aureus ATCC 6538; assay: Broth microdilution MIC / MBC; type: cell-based; settings: ATCC6538, S. aureus ATCC 6538
# Procedure: as §1, §2, §3, §4
# [4] = test system: Bacillus cereus ATCC 10876; assay: Broth microdilution MIC / MBC; type: cell-based; settings: ATCC10876, B. cereus ATCC 10876
# Procedure: as §1, §2, §3, §4
# [5] = test system: Staphylococcus aureus ATCC 25923; assay: Broth microdilution MIC / MBC; type: cell-based
# Procedure: as §1, §2, §3, §4
# [6] = test system: Staphylococcus aureus ATCC 43300; assay: Broth microdilution MIC / MBC; type: cell-based; settings: ATCC 43300 / MRSA
# Procedure: as §1, §2, §3, §4
# [7] = test system: SW 620 human metastatic colon cancer cells; assay: MTT cytotoxicity assay; type: cell-based; settings: Homo sapiens; SW 620, MTT, 72 h
# Procedure: Both lines were obtained from American Type Culture Collection (ATCC, Rockville, MD, USA). The culture used to grow the SW 620 cells was prepared in MEM (ThermoSci, Waltham, MA, USA). The V79 cells were cultured in RPMI (Biowest SAS, Nuaillé, France) with the addition of 20 mM HEPES (Biowest, Nuaillé, France), 10% fetal bovine serum (FBS, Sigma-Aldrich, St. Louis, MO, USA), 100 µg/mL of streptomycin, and 100 U/mL of penicillin (Gibco, Grand Island, NY, USA). […] The MTT assay was used to establish the cytotoxic activity of the studied compounds. […] The process starts with the preparation of 96-well plates by placing cells at a density of 1 × 10^4 per well and incubating them for 24 h to adhere. […] Next, cells were incubated for 72 h at 37 °C with a 5% CO2. Then, a solution of MTT (0.5 mg/mL) was added to each well and plates were incubated for 4 h more in the same conditions. To dissolve precipitated formazan crystals, a mixture of DMSO and isopropanol (in a 1:1 ratio, v/v) was used. […] Cell viability was determined as the percentage of MTT reduction in the treated cells compared to the control group (unexposed cells). The relative MTT level, represented as a percentage, was calculated using the formula [A]/[B] × 100, where [A] stands for the absorbance of the treated cell sample and [B] for the absorbance of unexposed to studied compounds sample (control group).
# [8] = test system: V79 Chinese hamster lung cells; assay: MTT cytotoxicity assay; type: cell-based; settings: Cricetulus griseus, V 79 normal cells, 72 h
# Procedure: Both lines were obtained from American Type Culture Collection (ATCC, Rockville, MD, USA). The culture used to grow the SW 620 cells was prepared in MEM (ThermoSci, Waltham, MA, USA). The V79 cells were cultured in RPMI (Biowest SAS, Nuaillé, France) with the addition of 20 mM HEPES (Biowest, Nuaillé, France), 10% fetal bovine serum (FBS, Sigma-Aldrich, St. Louis, MO, USA), 100 µg/mL of streptomycin, and 100 U/mL of penicillin (Gibco, Grand Island, NY, USA). The eligible level of cells confluence was 80–90%, and both cell cultures were maintained in a humidified incubator set at 37 °C with 5% CO2 until they reached it.
# The MTT assay was used to establish the cytotoxic activity of the studied compounds. The mechanism of this method relies on enzymatic conversion of 3-(4,5-dimethylthiazol-2-yl)-2,5-diphentyltetrazolium bromide salt (MTT) into insoluble formazan crystals by mitochondrial dehydrogenases within viable cells.
# The process starts with the preparation of 96-well plates by placing cells at a density of 1 × 10^4 per well and incubating them for 24 h to adhere. Afterwards, the cells were treated with different concentrations of thiosemicarbazide derivatives, from 20 to 100 µM, except the control group which remained not exposed. Next, cells were incubated for 72 h at 37 °C with a 5% CO2. Then, a solution of MTT (0.5 mg/mL) was added to each well and plates were incubated for 4 h more in the same conditions.
# To dissolve precipitated formazan crystals, a mixture of DMSO and isopropanol (in a 1:1 ratio, v/v) was used. For the spectrophotometric survey, we used MultiscanGo from Thermo Scientific with the wavelength value set at 570 nm to measure absorbance.
# Cell viability was determined as the percentage of MTT reduction in the treated cells compared to the control group (unexposed cells). The relative MTT level, represented as a percentage, was calculated using the formula [A]/[B] × 100, where [A] stands for the absorbance of the treated cell sample and [B] for the absorbance of unexposed to studied compounds sample (control group). […] To calculate IC50 values (concentration at which 50% of cell viability is inhibited), we used GraphPad Prism 8.0.1 software.
# Rhabditis sp. = test system: Rhabditis sp.; design: method as in PMID 35408557; settings: reference drug; cited from earlier work
compound,measurement,setting,value
"CO/N=C(\C(=O)N[C@@H]1C(=O)N2C(C(=O)O)=C(COC(N)=O)CS[C@H]12)c1ccco1 [Cef, cefuroxime, reference compound]",MIC,[1],0.25 µg/mL
same,MIC,[2],0.25 µg/mL
same,MIC,[3],0.98 µg/mL
same,MIC,[4],31.2 µg/mL
same,MIC,"[5]; ATCC25923, S. aureus ATCC 25923, read-out: MIC",0.49 µg/mL
"CN[C@H](CC(C)C)C(=O)N[C@H]1C(=O)N[C@@H](CC(N)=O)C(=O)N[C@H]2C(=O)N[C@H]3C(=O)N[C@H](C(=O)N[C@H](C(=O)O)c4cc(O)cc(O)c4-c4cc3ccc4O)[C@H](O)c3ccc(c(Cl)c3)Oc3cc2cc(c3O[C@@H]2O[C@H](CO)[C@@H](O)[C@H](O)[C@H]2O[C@H]2C[C@](C)(N)[C@H](O)[C@H](C)O2)Oc2ccc(cc2Cl)[C@H]1O [Van, vancomycin, reference compound]",MBC,[6],2 µg/mL
same,MIC,[6],2 µg/mL
same,MBC,[5]; ATCC25923,2 µg/mL
same,MIC,[5]; ATCC25923,2 µg/mL
"COc1cccc2c1C(=O)c1c(O)c3c(c(O)c1C2=O)C[C@@](O)(C(=O)CO)C[C@@H]3O[C@H]1C[C@H](N)[C@H](O)[C@H](C)O1 [Ref, Doxorubicin, reference compound]",IC50,[7],1830 ± 100 nM
same,IC50,[8],460 ± 30 nM
CCCSc1ccc2nc(NC(=O)OC)[nH]c2c1 [albendazole],LC50,Rhabditis sp.,19200 µg/mL
